We go through four molecules from patent US11413289B2 (Aerovate Therapeutics, Inc., priority 2019, dated 2022).

The nature of this series: Thermal stability and polymorphism of imatinib salts. The class given is physicochemical.

On to `O=S(=O)(O)CCO` [isethionate], for which the “thermal stability and polymorphic forms” value is “suitable thermal stability and few or single polymorphic forms”.
Next, malate: “suitable thermal stability and few or single polymorphic forms”; malonate: “suitable thermal stability and few or single polymorphic forms”; tartrate: “suitable thermal stability and few or single polymorphic forms”.
